For one assay, the target named is h-CA IX (Homo sapiens, UniProt Q16790). Briefly: stopped-flow CO2 hydrase assay, h-CA IX.
Another assay has as its target h-CA I (Homo sapiens, UniProt P00915). Briefly: stopped-flow CO2 hydrase assay, h-CA I.
A further assay addresses h-CA XII (Homo sapiens, UniProt O43570). Briefly: stopped-flow CO2 hydrase assay, h-CA XII.
The target of a further assay is h-CA II (Homo sapiens, UniProt P00918). Put plainly: stopped-flow CO2 hydrase assay, h-CA II.

Chain of h-CA XII (O43570 25-354): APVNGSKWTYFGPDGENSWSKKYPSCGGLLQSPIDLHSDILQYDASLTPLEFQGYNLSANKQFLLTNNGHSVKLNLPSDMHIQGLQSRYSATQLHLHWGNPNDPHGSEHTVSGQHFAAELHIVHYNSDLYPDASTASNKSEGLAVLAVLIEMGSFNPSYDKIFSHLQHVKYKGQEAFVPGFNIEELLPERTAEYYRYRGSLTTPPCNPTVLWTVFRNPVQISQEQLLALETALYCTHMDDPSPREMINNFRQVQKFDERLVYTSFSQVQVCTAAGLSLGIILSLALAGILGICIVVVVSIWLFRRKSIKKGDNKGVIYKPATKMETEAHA
Chain of h-CA I (P00915 whole entry): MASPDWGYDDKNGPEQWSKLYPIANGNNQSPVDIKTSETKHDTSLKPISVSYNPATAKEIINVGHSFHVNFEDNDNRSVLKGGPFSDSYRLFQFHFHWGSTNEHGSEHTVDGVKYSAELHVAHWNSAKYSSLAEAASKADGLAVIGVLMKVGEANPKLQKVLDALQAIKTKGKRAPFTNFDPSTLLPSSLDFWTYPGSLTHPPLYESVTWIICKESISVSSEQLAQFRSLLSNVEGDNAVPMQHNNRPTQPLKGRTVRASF

Turning to `COc1ccccc1CNC(=O)c1cc2ccc(O)cc2oc1=O` [Compound 8, 7-Hydroxy-N-(2-Methoxybenzyl)-2-Oxo-2H-Chromene-3-Carboxamide], the Ki is 77.4 µM on h-CA IX, more than 100 µM on h-CA I, 70.2 µM on h-CA XII and more than 100 µM at h-CA II.

Turning to `COc1cccc(CNC(=O)c2cc3ccc(O)cc3oc2=O)c1` [Compound 10, 7-Hydroxy-N-(3-Methoxybenzyl)-2-Oxo-2H-Chromene-3-Carboxamide], the Ki at h-CA IX is 63.1 µM; at h-CA I it was more than 100 µM; at h-CA XII, 73.1 µM; at h-CA II, more than 100 µM.

For `O=C(NCc1ccc([N+](=O)[O-])cc1)c1cc2ccc(O)cc2oc1=O` [Compound 11, 7-Hydroxy-N-(4-Nitrobenzyl)-2-Oxo-2H-Chromene-3-Carboxamide], the Ki was 75.7 µM at h-CA IX, more than 100 µM at h-CA I, 49.8 µM at h-CA XII and more than 100 µM on h-CA II.

On to `O=C(NCc1cccc([N+](=O)[O-])c1)c1cc2ccc(O)cc2oc1=O` [Compound 12, 7-Hydroxy-N-(3-Nitrobenzyl)-2-Oxo-2H-Chromene-3-Carboxamide], for which the Ki at h-CA IX was 64.7 µM; at h-CA I, more than 100 µM; on h-CA XII, 55.2 µM; on h-CA II, more than 100 µM.

On to `O=C(NCc1ccc(F)cc1)c1cc2ccc(O)cc2oc1=O` [Compound 13, N-(4-Fluorobenzyl)-7-Hydroxy-2-Oxo-2H-Chromene-3-Carboxamide], for which the Ki on h-CA IX was 86.9 µM; at h-CA I, more than 100 µM; on h-CA XII, 70.5 µM; at h-CA II, more than 100 µM.

Consider `O=C(NCc1cccc(F)c1)c1cc2ccc(O)cc2oc1=O` [Compound 14, N-(3-Fluorobenzyl)-7-Hydroxy-2-Oxo-2H-Chromene-3-Carboxamide], for which the Ki at h-CA IX is 73.2 µM; at h-CA I, more than 100 µM; at h-CA XII it was 57.6 µM; at h-CA II, more than 100 µM.

Consider `O=C(NCc1ccccc1C(F)(F)F)c1cc2ccc(O)cc2oc1=O` [Compound 15, 7-Hydroxy-2-Oxo-N-(2-(Trifluoromethyl)benzyl)-2H-Chromene-3-Carboxamide], for which the Ki was 50 µM on h-CA IX, more than 100 µM at h-CA I, 31.5 µM on h-CA XII and more than 100 µM on h-CA II.

As to `O=C(NCc1cccc(C(F)(F)F)c1)c1cc2ccc(O)cc2oc1=O` [Compound 16, 7-Hydroxy-2-Oxo-N-(3-(Trifluoromethyl)benzyl)-2H-Chromene-3-Carboxamide], the Ki at h-CA IX is 77.1 µM; at h-CA I it was more than 100 µM; on h-CA XII, 64.4 µM; on h-CA II, more than 100 µM.

For the molecule `O=C(NCc1ccc(C(F)(F)F)cc1)c1cc2ccc(O)cc2oc1=O` [Compound 17, 7-Hydroxy-2-Oxo-N-(4-(Trifluoromethyl)benzyl)-2H-Chromene-3-Carboxamide], the inhibition constant (Ki) at h-CA IX was 83.7 µM; on h-CA I, more than 100 µM; at h-CA XII, 54.1 µM; on h-CA II it was more than 100 µM.

For the molecule `O=C(NCc1ccc(Br)cc1)c1cc2ccc(O)cc2oc1=O` [Compound 18, N-(4-Bromobenzyl)-7-Hydroxy-2-Oxo-2H-Chromene-3-Carboxamide], the Ki on h-CA IX is 60.7 µM; at h-CA I, more than 100 µM; at h-CA XII, 26.1 µM; at h-CA II it was more than 100 µM.

For `O=C(NCc1cccc(Cl)c1)c1cc2ccc(O)cc2oc1=O` [Compound 20, N-(3-Chlorobenzyl)-7-Hydroxy-2-Oxo-2H-Chromene-3-Carboxamide], the Ki was 33.9 µM at h-CA IX, more than 100 µM at h-CA I, 42.6 µM at h-CA XII and more than 100 µM on h-CA II.

In the case of `O=C(NCc1ccc(Cl)cc1)c1cc2ccc(O)cc2oc1=O` [Compound 21, N-(4-Chlorobenzyl)-7-Hydroxy-2-Oxo-2H-Chromene-3-Carboxamide], the Ki at h-CA IX was 80.7 µM; on h-CA I, more than 100 µM; at h-CA XII, 39.7 µM; on h-CA II, more than 100 µM.

`O=C(NCc1c(Cl)cccc1Cl)c1cc2ccc(O)cc2oc1=O` [Compound 24, N-(2,6-Dichlorobenzyl)-7-Hydroxy-2-Oxo-2H-Chromene-3-Carboxamide]: the Ki on h-CA IX is 85.6 µM; at h-CA I, more than 100 µM; at h-CA XII, 75.1 µM; on h-CA II, more than 100 µM.

As for `COc1ccc(CCNC(=O)c2cc3ccc(O)cc3oc2=O)cc1` [Compound 26, 7-Hydroxy-N-(4-Methoxyphenethyl)-2-Oxo-2H-Chromene-3-Carboxamide], the inhibition constant Ki is 80.8 µM at h-CA IX, more than 100 µM at h-CA I, 57.7 µM on h-CA XII and more than 100 µM at h-CA II.

As to `COc1ccc(CCNC(=O)c2cc3ccc(O)cc3oc2=O)cc1OC` [Compound 27, N-(3,4-Dimethoxyphenethyl)-7-Hydroxy-2-Oxo-2H-Chromene-3-Carboxamide], the inhibition constant (Ki) is 84.7 µM on h-CA IX, more than 100 µM on h-CA I, 50.8 µM on h-CA XII and more than 100 µM on h-CA II.

Take `O=C(NCCc1ccc(F)cc1)c1cc2ccc(O)cc2oc1=O` [Compound 28, N-(4-Fluorophenethyl)-7-Hydroxy-2-Oxo-2H-Chromene-3-Carboxamide]: the Ki on h-CA IX is 80.4 µM; at h-CA I it was more than 100 µM; on h-CA XII, 66.9 µM; at h-CA II, more than 100 µM.

For `O=C(c1cc2ccc(O)cc2oc1=O)N1CCN(Cc2ccccc2)CC1` [Compound 31, 3-(4-Benzylpiperazine-1-Carbonyl)-7-Hydroxy-2H-Chromen-2-One], the Ki on h-CA IX was 84.1 µM; at h-CA I, more than 100 µM; on h-CA XII, 59.5 µM; on h-CA II, more than 100 µM.

As for `Cc1cccc(N2CCN(C(=O)c3cc4ccc(O)cc4oc3=O)CC2)c1` [Compound 33, 7-Hydroxy-3-(4-(m-tolyl)piperazine-1-Carbonyl)-2H-Chromen-2-One], the Ki on h-CA IX is 89.3 µM; on h-CA I, more than 100 µM; at h-CA XII it was 40.5 µM; on h-CA II it was more than 100 µM.

On to `Cc1ccc(N2CCN(C(=O)c3cc4ccc(O)cc4oc3=O)CC2)cc1` [Compound 34, 7-Hydroxy-3-(4-(p-tolyl)piperazine-1-Carbonyl)-2H-Chromen-2-One], for which the Ki at h-CA IX was 83.2 µM; on h-CA I, more than 100 µM; at h-CA XII, 56 µM; at h-CA II it was more than 100 µM.

Turning to `Cc1cccc(N2CCN(C(=O)c3cc4ccc(O)cc4oc3=O)CC2)c1C` [Compound 35, 3-(4-(2,3-Dimethylphenyl)piperazine-1-Carbonyl)-7-Hydroxy-2H-Chromen-2-One], the Ki at h-CA IX is 82.2 µM; at h-CA I it was more than 100 µM; at h-CA XII, 41.4 µM; at h-CA II it was more than 100 µM.

With `Cc1ccc(N2CCN(C(=O)c3cc4ccc(O)cc4oc3=O)CC2)c(C)c1` [Compound 36, 3-(4-(2,4-Dimethylphenyl)piperazine-1-Carbonyl)-7-Hydroxy-2H-Chromen-2-One], the Ki on h-CA IX is 78.1 µM; at h-CA I it was more than 100 µM; on h-CA XII it was 69.7 µM; at h-CA II, more than 100 µM.

In the case of `Cc1ccc(C)c(N2CCN(C(=O)c3cc4ccc(O)cc4oc3=O)CC2)c1` [Compound 37, 3-(4-(2,5-Dimethylphenyl)piperazine-1-Carbonyl)-7-Hydroxy-2H-Chromen-2-One], the Ki is 75.9 µM on h-CA IX, more than 100 µM at h-CA I, 63.4 µM at h-CA XII and more than 100 µM at h-CA II.

In the case of `Cc1cc(C)cc(N2CCN(C(=O)c3cc4ccc(O)cc4oc3=O)CC2)c1` [Compound 39, 3-(4-(3,5-Dimethylphenyl)piperazine-1-Carbonyl)-7-Hydroxy-2H-Chromen-2-One], the Ki at h-CA IX is 68.1 µM; on h-CA I, more than 100 µM; at h-CA XII, 46.8 µM; on h-CA II, more than 100 µM.

With `O=C(c1cc2ccc(O)cc2oc1=O)N1CCN(c2ccccc2[N+](=O)[O-])CC1` [Compound 40, 7-Hydroxy-3-(4-(2-Nitrophenyl)piperazine-1-Carbonyl)-2H-Chromen-2-One], the Ki at h-CA IX was 85.2 µM; at h-CA I it was more than 100 µM; on h-CA XII it was 63.8 µM; on h-CA II, more than 100 µM.

Turning to `O=C(c1cc2ccc(O)cc2oc1=O)N1CCN(c2cccc([N+](=O)[O-])c2)CC1` [Compound 41, 7-Hydroxy-3-(4-(3-Nitrophenyl)piperazine-1-Carbonyl)-2H-Chromen-2-One], the Ki is 25.4 µM at h-CA IX, more than 100 µM at h-CA I, 47.5 µM on h-CA XII and more than 100 µM on h-CA II.

Consider `O=C(c1cc2ccc(O)cc2oc1=O)N1CCN(c2ccc([N+](=O)[O-])cc2)CC1` [Compound 42, 7-Hydroxy-3-(4-(4-Nitrophenyl)piperazine-1-Carbonyl)-2H-Chromen-2-One], for which the Ki is 30.1 µM on h-CA IX, more than 100 µM at h-CA I, 62.8 µM on h-CA XII and more than 100 µM on h-CA II.

Regarding `COc1cccc(N2CCN(C(=O)c3cc4ccc(O)cc4oc3=O)CC2)c1` [Compound 43, 7-Hydroxy-3-(4-(3-Methoxyphenyl)piperazine-1-Carbonyl)-2H-Chromen-2-One], the Ki is 40.4 µM at h-CA IX, more than 100 µM on h-CA I, 79.9 µM at h-CA XII and more than 100 µM on h-CA II.

By Ki is commonly meant the dissociation constant of the complex between target and ligand, obtained from inhibition or displacement. High values mean a looser hold on the target, low ones a stronger hold on the target.

Source of the values: publication PMC11944513, “Investigation on Human Carbonic Anhydrase IX and XII Inhibitory Activity and A549 Antiproliferative Activity of a New Class of Coumarinamides” (Pharmaceuticals, 2025).
